In brackets after ≈: the same amount, converted by molar mass. Read-outs that look alike come from different tables or passages of the source.
Key:
Janus kinase 3 (JAK3) = molecular target: T1, Janus kinase 3 (JAK3) (Homo sapiens, UniProt P52333); conditions: cited from earlier work
T1 sequence (P52333 1-1124): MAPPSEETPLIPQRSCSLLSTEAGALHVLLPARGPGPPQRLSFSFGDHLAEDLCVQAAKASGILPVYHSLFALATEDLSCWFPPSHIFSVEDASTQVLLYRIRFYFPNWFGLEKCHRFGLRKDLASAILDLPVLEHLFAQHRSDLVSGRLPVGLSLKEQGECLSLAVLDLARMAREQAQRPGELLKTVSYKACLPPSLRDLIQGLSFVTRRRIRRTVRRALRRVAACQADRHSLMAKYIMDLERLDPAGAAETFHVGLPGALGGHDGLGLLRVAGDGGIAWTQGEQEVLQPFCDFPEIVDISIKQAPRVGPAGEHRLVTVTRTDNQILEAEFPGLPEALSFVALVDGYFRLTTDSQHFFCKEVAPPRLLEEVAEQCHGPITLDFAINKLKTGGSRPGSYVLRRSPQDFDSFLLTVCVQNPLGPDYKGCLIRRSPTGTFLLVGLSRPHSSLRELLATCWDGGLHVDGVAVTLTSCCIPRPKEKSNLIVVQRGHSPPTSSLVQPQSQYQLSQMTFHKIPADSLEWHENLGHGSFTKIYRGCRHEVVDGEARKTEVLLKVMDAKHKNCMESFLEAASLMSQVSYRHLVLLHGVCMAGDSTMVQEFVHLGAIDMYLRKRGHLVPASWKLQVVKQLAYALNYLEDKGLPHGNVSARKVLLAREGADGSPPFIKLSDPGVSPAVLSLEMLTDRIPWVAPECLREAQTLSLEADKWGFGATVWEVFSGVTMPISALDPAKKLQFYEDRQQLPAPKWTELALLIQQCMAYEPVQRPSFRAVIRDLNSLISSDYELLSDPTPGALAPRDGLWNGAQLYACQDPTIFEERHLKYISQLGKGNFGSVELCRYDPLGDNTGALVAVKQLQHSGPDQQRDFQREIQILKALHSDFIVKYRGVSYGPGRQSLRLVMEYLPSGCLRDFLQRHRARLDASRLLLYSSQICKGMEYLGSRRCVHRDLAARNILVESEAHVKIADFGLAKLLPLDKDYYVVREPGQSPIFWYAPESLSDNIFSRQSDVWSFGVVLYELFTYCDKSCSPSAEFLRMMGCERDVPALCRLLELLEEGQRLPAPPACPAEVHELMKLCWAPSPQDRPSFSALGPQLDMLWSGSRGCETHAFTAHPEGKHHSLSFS

[1] = Water solubility of exemplified compounds, USP solubility definition; type: physicochemical
Description: “Solubility” generally refers to the degree to which a substance dissolves in a solvent to make a solution (usually expressed as grams of solute per liter of solvent). Solubility of one fluid (liquid or gas) in another may be complete (totally miscible; e.g., methanol and water) or partial (e.g., oil and water dissolve only slightly). In general, “like dissolves like” (e.g., aromatic hydrocarbons dissolve in each other but not in water). Solubility is the ability of a solid, liquid, or gaseous chemical substance (referred to as the solute) to dissolve in a solvent (usually a liquid) and form a solution. The solubility of a substance depends on the types of solvent used, their polarity, and the temperature and pressure to which they are subjected. The solubility of a substance in a particular solvent is measured by the concentration of the saturated solution. A solution is considered saturated when adding additional solute no longer increases the concentration of the solution. The degree of solubility ranges widely depending on the substances, from infinitely soluble (fully miscible), such as ethanol in water, to poorly soluble, such as silver chloride in water. The term “insoluble” is often applied to poorly soluble compounds. Under certain conditions, the equilibrium solubility can be exceeded, yielding a supersaturated solution.
“Poorly water-soluble chemical compounds”: The United States Pharmacopeia (USP) designates the solubility of drugs as parts of solvent required for one part solute. […] The USP lists the solubility of a drug as the quantity of milliliters of solvent in which 1 g of solute will dissolve and assigns a descriptive term in the summary provided below.

[2] = cited from earlier work
[3] = cited from earlier work; remark: listed apart in the source
[4] = Solubility screening panel in DEGEE; type: physicochemical
Description: Fisetin, trans-resveratrol, and milk thistle extract (comprising silymarin) were all found to be soluble in DEGEE in a solubility screening panel evaluating surfactants and other emulsifiers for use in topical delivery. An initial objective was to find a suitable miscible oil for use in hair applications, such as argan, sesame, sunflower, fractionated coconut, and grape seed oils. […] The next step was to evaluate oil soluble emulsifiers, such as glyceryl oleate, sorbitan oleate, lauryl oleate, and lauryl sulfate. […] Oleic acid (a fatty acid) is known to be miscible with DEGEE, but it is a […] fatty acid, which makes it an unfavorable choice for use in a long-term topical dosing formulation. Oleic acid was evaluated with a mixture of sorbitan laurate, polyglyceryl-4 laurate, and dilauryl citrate. This formulation made a miscible mixture with fisetin, trans-resveratrol, and milk thistle dissolved in DEGEE. However, the dilution of the mixture with water created a suspension, and once again, the solids precipitated out after approximately one hour.

[5] = cited from earlier work; remark: listed apart in the source
[6] = cited from earlier work; remark: listed apart in the source

Row | Molecule | Definition (USP solubility descriptive term) ([1]; water) | mass_water/mass_solute ([1]; water) | Water Solubility [2] | solubility in DEGEE [4] | reported aqueous solubility [2] | also measured
1 | C/C=C(/C)C(=O)O[C@H]1[C@@H]2[C@H](C)C(=O)O[C@@H]2C[C@@H](C)[C@@H]2C=CC(=O)[C@]21C [Brevilin A] |  |  |  |  |  | inhibition of JAK3 (Janus kinase 3 (JAK3)): inhibit
2 | O=C(O[C@@H]1Cc2c(O)cc(O)cc2O[C@@H]1c1cc(O)c(O)c(O)c1)c1cc(O)c(O)c(O)c1 [EGCG, [(2R,3R)-5,7-dihydroxy-2-(3,4,5-trihydroxyphenyl)chroman-3-yl]3,4,5-trihydroxybenzoate] |  |  |  |  |  | time at which blood levels peak ([3]; after consumption (oral)): ≤ 1.7 h; time by which majority of unchanged EGCG is excreted into the urine ([3]; from almost immediately): ≤ 8 h; absorbed plasma half-life ([3]; oral): about 5 hours
3 | O=c1c(O)c(-c2ccc(O)c(O)c2)oc2cc(O)ccc12 [Fisetin, 2-(3,4-dihydroxyphenyl)-3,7-dihydroxy-4H-1-benzopyran-4-one] | practically insoluble | 100,000 | 0.01 mg/mL | soluble | about 0.01 mg/mL | log P [5]: 3.2; aqueous solubility ([2]; literature): 0.01045 mg/mL (≈ 36.5 µM)
4 | Silymarin |  |  |  |  |  | Definition (USP solubility descriptive term) [1]: very slightly insoluble; mass_water/mass_solute [1]: 2,500

More lines, main results first:

Row | Definition (USP solubility descriptive term) ([1]; water) | mass_water/mass_solute ([1]; water) | Molecule | Water Solubility [2] | solubility in DEGEE [4] | reported aqueous solubility [2] | also measured
5 | very slightly insoluble | 2,500 | O=C1c2c(O)cc(O)cc2O[C@H](c2ccc(O)c(O)c2)[C@H]1O [Dihydroquercetin] | 0.4 mg/mL |  |  | 
6 | practically insoluble | 33,333 | Oc1ccc(/C=C/c2cc(O)cc(O)c2)cc1 [trans-Resveratrol, 5-[(E)-2-(4-hydroxyphenyl)ethen-1-yl]benzene-1,3-diol] |  | soluble | about 0.03 mg/mL | half-life ([6]; in vivo): about 15 min; bioavailability ([6]; oral): about 0.5%

Reference: US20230330019A1, “EMULSION FORMULATIONS OF POORLY WATER-SOLUBLE COMPOUNDS” (priority 2022, published 2023)
